# Data published in US7511133B2, “Adenosine A3 receptor agonists” (King Pharmaceuticals Research and Development, Inc., priority 2003, dated 2009).
# What was measured:
# human A2A receptors = molecular target: T1, human A2A receptors (Homo sapiens, UniProt P29274); assay: [^3H] SCH58261 binding to human A2A receptors expressed in CHO cells (antagonist radioligand); details: human A2A, CHO cells, antagonist radioligand; read-out: [^3H] SCH58261 binding to human A2A receptors expressed in CHO cells Ki
# T1 construct: expressed in transfected cells; host or cells: CHO cells
# Procedure: (§1) Binding assay methodology for the human data with antagonist radioligands. […] Arch. Pharmacol. 357: 1-9, (1998). The cells were grown adherently and maintained in Dulbecco's Modified Eagles Medium with nutrient mixture F12 (DMEM/F12) without nucleosides, containing 10% fetal calf serum, penicillin (100 U/ml), streptomycin (100 μg/ml), L-glutamine (2 mM) and Geneticin (G418, 0.2 mg/ml) at 37° C. in 5% CO2/95% air. Cells were split 2 or 3 times weekly at a ratio between 1:5 and 1:20. For membrane preparation the culture medium was removed and the cells were washed with PBS and scraped off T75 flasks in ice-cold hypotonic buffer (5 mM Tris HCl, 2 mM EDTA, pH 7.4). The cell suspension was homogenized with Polytron and the homogenate was spun for 10 min at 1,000×g. The supernatant was then centrifuged for 30 min at 100,000×g. The membrane pellet was resuspended in 50 mM Tris HCl buffer pH 7.4 (for A3 adenosine receptors: 50 mM Tris HCl, 10 mM MgCl2, 1 mM EDTA) and incubated with 3 UI/ml of Adenosine deaminase for 30 min at 37° C. Then the suspension was frozen at −80° C. HEK 293 cells transfected with the human recombinant A2B adenosine receptor were obtained from Receptor Biology, Inc. (Beltsville, Md., USA).
# Binding of [^3H]-SCH 58261 to CHO cells transfected with the human recombinant A2A adenosine receptors (50 μg of protein/assay) was performed using 0.2 ml 50 mM Tris HCl buffer, 10 mM MgCl2 pH 7.4 and at least 6-8 different concentrations of antagonists studied for an incubation time of 30 min at 25° C.
# human A3 receptors = molecular target: T2, human A3 receptors (Homo sapiens, UniProt P0DMS8); assay: [^3H] MRE3008F20 binding to human A3 receptors expressed in CHO cells (antagonist radioligand); details: human A3, CHO cells, antagonist radioligand; read-out: [^3H] MRE3008F20 binding to human A3 receptors expressed in CHO cells Ki
# T2 construct: expressed in transfected cells; host or cells: CHO cells
# T2 sequence (P0DMS8 1-318): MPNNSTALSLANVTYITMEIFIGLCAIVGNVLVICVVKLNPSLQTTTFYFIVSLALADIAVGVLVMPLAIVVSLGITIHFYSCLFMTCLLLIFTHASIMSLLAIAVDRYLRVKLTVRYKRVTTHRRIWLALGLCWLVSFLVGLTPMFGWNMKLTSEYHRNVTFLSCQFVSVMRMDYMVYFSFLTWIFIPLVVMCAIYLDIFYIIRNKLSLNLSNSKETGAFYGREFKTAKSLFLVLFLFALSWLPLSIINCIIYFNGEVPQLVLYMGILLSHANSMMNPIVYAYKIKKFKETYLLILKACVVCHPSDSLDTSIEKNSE
# Procedure: as §1
# Binding of [^3H]-MRE 3008F20 to CHO cells transfected with the human recombinant A3 adenosine receptors was performed according to Varani et al., 2000. Competition experiments were carried out in duplicate in a final volume of […] in test tubes containing 1 nM [^3H]-MRE 3008F20, 50 mM Tris HCl buffer, 10 mM MgCl2, 1 mM EDTA pH 7.4 and 100 μl of diluted membranes (50 μg of protein/assay) and at least 8-10 different concentrations of examined antagonists. Incubation time was 120 min at 4° C., according to the results of previous time-course experiments.
# [1] = molecular target: T3, human A2A adenosine receptors (Homo sapiens, UniProt P29274); assay: Displacement of [^3H]CGS21680 binding, human A2A adenosine receptors in CHO cells (agonist radioligand); details: human A2A, CHO cells, [^3H]CGS21680; read-out: Ki(A2A). Displacement of [^3H]CGS21680 binding to human A2A adenosine receptors exp. in CHO cells.
# T3 construct: expressed in transfected cells; host or cells: CHO cells
# [2] = molecular target: T4, human A1 adenosine receptors (Homo sapiens, UniProt P30542); assay: Displacement of [^3H]CHA binding, human A1 adenosine receptors in CHO cells (agonist radioligand)
# T4 sequence (P30542 1-326): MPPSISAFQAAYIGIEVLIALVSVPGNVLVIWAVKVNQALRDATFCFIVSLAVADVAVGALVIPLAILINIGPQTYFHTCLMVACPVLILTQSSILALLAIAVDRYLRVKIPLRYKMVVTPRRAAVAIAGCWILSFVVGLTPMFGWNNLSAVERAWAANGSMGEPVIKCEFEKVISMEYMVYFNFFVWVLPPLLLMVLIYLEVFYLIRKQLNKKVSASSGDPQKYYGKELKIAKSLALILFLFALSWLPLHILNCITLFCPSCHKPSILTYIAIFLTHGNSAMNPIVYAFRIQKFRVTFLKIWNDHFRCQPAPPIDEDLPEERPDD
# [3] = molecular target: T5, human A3 adenosine receptors (Homo sapiens, UniProt P0DMS8); details: for A1/A3: ratio Ki(A1)/Ki(A3), agonist radioligands
# T5 sequence (P0DMS8 1-318): T2 sequence (P0DMS8 1-318)
# human hA2B receptors = molecular target: T6, human hA2B receptors (Homo sapiens, UniProt P29275); assay: [^3H] DPCPX binding to human hA2B receptors expressed in HEK293 cells (antagonist radioligand); details: human A2B, HEK293 cells, antagonist radioligand; read-out: [^3H] DPCPX binding to human hA2B receptors expressed in HEK293 cells Ki
# T6 construct: host or cells: HEK 293 cells
# T6 sequence (P29275 1-332): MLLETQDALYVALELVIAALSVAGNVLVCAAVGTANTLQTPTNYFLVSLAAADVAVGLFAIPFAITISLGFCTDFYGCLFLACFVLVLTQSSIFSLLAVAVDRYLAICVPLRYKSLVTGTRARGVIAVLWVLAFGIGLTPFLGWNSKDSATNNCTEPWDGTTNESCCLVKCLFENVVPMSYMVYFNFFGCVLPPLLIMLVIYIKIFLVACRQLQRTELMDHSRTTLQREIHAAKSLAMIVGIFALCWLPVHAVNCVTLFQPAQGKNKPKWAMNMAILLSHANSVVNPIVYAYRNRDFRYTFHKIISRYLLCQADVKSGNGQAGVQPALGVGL
# Procedure: as §1
# Competition experiments of [^3H]-DPCPX to HEK-293 cells transfected with the human recombinant A^2B adenosine receptor were performed for 60 min at 25° C. in 0.1 ml of 50 mM Tris HCl buffer, 10 mM MgCl2, 1 mM EDTA, 0.1 mM benzamidine pH 7.4, 2 IU/ml adenosine deaminase containing 34 nM [^3H]-DPCPX, diluted membranes (20 μg of protein/assay) and at least 6-8 different concentrations of selected compounds.
# human A1 receptors = molecular target: T7, human A1 receptors (Homo sapiens, UniProt P30542); assay: [^3H] DPCPX binding to human A1 receptors expressed in CHO cells (antagonist radioligand); details: human A1, CHO cells, antagonist radioligand; read-out: [^3H] DPCPX binding to human A1 receptors expressed in CHO cells Ki
# T7 construct: expressed in transfected cells; host or cells: CHO cells
# T7 sequence (P30542 1-326): T4 sequence (P30542 1-326)
# Procedure: as §1, with “Pharmacol. 357: 1-9, (1998).” left out
# Displacement experiments were performed for 120 min at 25° C. in 0.2 ml of 50 mM Tris HCl buffer pH 7.4 containing 1 nM [3H]-DPCPX, diluted membranes (50 μg of protein/assay) and at least 6-8 different concentrations of antagonists studied. Non-specific binding was determined in the presence of 10 μM of CHA and this was always ≦10% of the total binding.
# A3 receptor = details: cited from earlier work
# T3 sequence (P29274 whole entry): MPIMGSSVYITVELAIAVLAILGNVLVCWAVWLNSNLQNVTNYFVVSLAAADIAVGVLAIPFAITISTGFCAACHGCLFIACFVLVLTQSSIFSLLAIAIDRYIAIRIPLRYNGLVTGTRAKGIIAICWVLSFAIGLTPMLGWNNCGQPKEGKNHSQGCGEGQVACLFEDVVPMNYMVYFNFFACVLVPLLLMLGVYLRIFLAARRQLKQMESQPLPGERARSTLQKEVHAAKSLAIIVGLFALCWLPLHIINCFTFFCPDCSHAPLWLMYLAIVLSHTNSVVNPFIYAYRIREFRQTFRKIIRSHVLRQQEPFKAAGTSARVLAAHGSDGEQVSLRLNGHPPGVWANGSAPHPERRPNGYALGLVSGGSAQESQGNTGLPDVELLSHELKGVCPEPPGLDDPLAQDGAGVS
# T1 sequence (P29274 whole entry): as above
Ki (human A2A receptors) [µM],Ki (human A3 receptors) [µM],Ki [1] [µM],Ki [2] [µM],Ki [3] [µM],A1/A3 [3],melting point,Ki (human hA2B receptors) [µM],Ki (human A1 receptors) [µM],Structure (SMILES),selective for the A3 receptor versus either the A1 or A2A receptors (A3 receptor) [fold]
> 1,0.33,> 1,0.25,0.02,12.5,185 °C,> 1,> 1,"CCNC(=O)[C@H]1O[C@@H](n2cnc3c(NC(=O)Nc4ccc(S(=O)(=O)NC(C)(C)C)cc4)ncnc32)[C@H](O)[C@@H]1O [Compound 92, 1-Deoxy-1-[6-[[[[4-[N-(1,1-dimethylethyl)aminosulfonyl]phenyl]amino]-carbonyl]amino]-9H-purin-9-yl]-N-ethyl-β-D-ribofuranuronamide]",
> 1,0.198,> 1,0.725,0.02,36.25,204 to 205 °C,> 1,> 1,"CCNC(=O)[C@H]1O[C@@H](n2cnc3c(NC(=O)Nc4ccc(S(=O)(=O)N5CCOCC5)cc4)ncnc32)C(O)C1O (stereo partly drawn) [Compound 84, 1-Deoxy-1-[6-[[[[4-[(morpholine-1-yl)sulfonyl]phenyl]amino]carbonyl]amino]-9H-purin-9-yl]-N-ethyl-β-D-ribofuranuronamide]",
> 1,0.34,> 1,0.29,0.025,11.6,180 °C (dec.),> 1,> 1,"CCNC(=O)[C@H]1O[C@@H](n2cnc3c(NC(=O)Nc4ccc(S(=O)(=O)NC5CC5)cc4)ncnc32)[C@H](O)[C@@H]1O [Compound 89, 1-Deoxy-1-[6-[[[[4-[N-(cyclopropyl)aminosulfonyl]phenyl]amino]-carbonyl]-amino]-9H-purin-9-yl]-N-ethyl-β-D-ribofuranuronamide]",
> 1,0.237,> 1,0.25,0.023,10.86,180 to 183 °C,> 1,> 1,"CCNC(=O)[C@H]1O[C@@H](n2cnc3c(NC(=O)Nc4ccc(S(=O)(=O)NCC)cc4)ncnc32)[C@H](O)[C@@H]1O [Compound 85, 1-Deoxy-1-[6-[[[[4-[N-(ethyl)aminosulfonyl]phenyl]amino]-carbonyl]amino]-9H-purin-9-yl]-N-ethyl-β-D-ribofuranuronamide]",
,,,,,,,,,"CNC(=O)[C@H]1O[C@@H](n2cnc3c(NCc4cccc(I)c4)ncnc32)[C@H](O)[C@@H]1O [IB-MECA, N^6-(3-iodo-benzyl)-adenosine-5′-N-methyl-uronamide]",50
> 1,0.31,> 1,0.24,0.035,7.5,192 °C,> 1,> 1,"CCNC(=O)[C@H]1O[C@@H](n2cnc3c(NC(=O)Nc4ccc(S(=O)(=O)NC56CC7CC(CC(C7)C5)C6)cc4)ncnc32)[C@H](O)[C@@H]1O [Compound 93, 1-Deoxy-1-[6-[[[[4-[N-(adamantan-1-yl)sulfonyl]phenyl]amino]carbonyl]-amino]-9H-purin-9-yl]-N-ethyl-β-D-ribofuranuronamide]",
> 1,0.886,> 1,0.445,0.08,5.56,199 °C,> 1,> 1,"CCCCCNS(=O)(=O)c1ccc(NC(=O)Nc2ncnc3c2ncn3[C@@H]2O[C@H](C(=O)NCC)[C@@H](O)[C@H]2O)cc1 [Compound 87, 1-Deoxy-1-[6-[[[[4-[N-(pentyl)aminosulfonyl]phenyl]-amino]carbonyl]amino]-9H-purin-9-yl]-N-ethyl-β-D-ribofuranuronamide]",
